Assay [1] concerns saphenous vein of dogs. Nature of the assay: Contraction of the saphenous vein isolated from dog. The note with it: Canis lupus familiaris, dog saphenous vein rings. The method, then:
(§1) The activity of the compounds of the invention has been evaluated in a pharmacological test that measures their potential for contracting the saphenous vein isolated from a dog or rabbit, as described by Humphrey et al. (Br. J. Pharmacol., 94, 1123, 1988).
(§2) The test are carried out on saphenous veins of dogs (10-25 kg) or of rabbits (2-3 kg) which have ben anaesthetised with pentobarbital (30 mg/kg i.v.). The saphenous veins are removed quickly and cut into rings. The rings are mounted between two hooks in vessels maintained at 37° C. containing physiological saline (composition in mM:NaCl 118.3; KCl 4.7; CaCl2 2.5; MgSO4 1.2; KH2 PO4 1.2; NaHCO3 25.0; Ca-EDTA 0.026 and glucose 11.1).
(§3) A mixture of 95% O2 --5% CO2 is bubbled through the physiological saline solution. The lower hook consists of the fixed point whilst the upper hook is connected to an isometric force sensor. The tissues are subjected to a base tension of 1.5 grammes (dog) and of 1 gramme (rabbit). The test pharmacological substances are prepared immediately prior to use; they are solubilised in water or in dimethyl sulphoxide.
(§4) After being mount, the preparations are left to rest for 60 minutes, rinsing operations being carried out every 30 minutes. The organ is then placed in the presence of phenoxybenzamine (5×10^-8 M) for 20 minutes. That agent is eliminated by a number of successive washing operations over the course of 45 minutes. After readjustment of the base tension, contraction is brought about by KCl (100 mM). After washing and return to the base line, contraction is induced by 5-hydroxytryptamine (10^-5 M).
(§5) After washing and return to the base line, a dose/response curve for the pharmacological substances is produced by the addition of cumulative doses (10^-9 to 10^-4 M).
(§6) The test enables the 50% effective concentration (EC50) of the compounds of the invention to be determined.
The EC50 is calculated in the following manner: the tension values are first converted into percentages relative to the maximum effect induced by KCl. […]

Assay [2] has as its system saphenous vein of rabbits. As to the kind of experiment: Contraction of the saphenous vein isolated from rabbit. Conditions: Oryctolagus cuniculus, rabbit saphenous vein rings; for Emax: % relative to the maximum effect induced by KCl (100 mM), read-out: maximum response (contraction of the saphenous vein); for EC50: cumulative doses 10^-9 to 10^-4 M, 37° C., tension as % of KCl maximum. On the procedure:
as §1, §2, §3, §4, §5, §6
The EC50 is calculated in the following manner: the tension values are first converted into percentages relative to the maximum effect induced by KCl. The effective concentration 50% (ED50) is determined by non-linear regression according to the model of the law of mass action of Michaelis-Menten.

Each structure is given as a SMILES string. Structures can show the parent of a compound that is named as a salt.

These results are taken from US6020336A, “Indole and indazole compounds” (priority 1997, dated 2000).

Usually EC50 stands for the concentration that produces a half-maximal response. For `COc1cncnc1N1CCN(CCCn2ccc3ccc(-n4cnnc4)cc32)CC1` [Example 5, 1-{3-[4-(5-Methoxypyrimidin-4-yl)piperazin-1-yl]propyl}-6-([1,2,4]-triazol-4-yl)indole dihydrochloride], the Emax at 100 µM in assay [1] (100 μM, % relative to the maximum effect induced by KCl (100 mM), read-out: maximum contraction at a concentration of 100 μM) was found to be 6%. Besides, in assay [2], the Emax is 75% and the EC50 is 300 nM.

As for `CN(C)CCn1ncc2ccc(-n3cnnc3)cc21` [Example 6, 1-(Dimethylaminoethyl)-6-([1,2,4]triazol-4-yl)indazole dihydrochloride], the Emax was determined as 47% in assay [1] (% relative to the maximum effect induced by KCl (100 mM), read-out: maximum response (contraction of the saphenous vein)) and 87% in assay [2]. Besides, the EC50 worked out at 170 nM in assay [1] (cumulative doses 10^-9 to 10^-4 M, 37° C., tension as % of KCl maximum) and 120 nM in assay [2].
